Experimental data from patent publication US12371454B2, “Cyclic peptide compound having Kras inhibitory action” (priority 2019, dated 2025).
Positions of bridges follow the written chain, without caps; N, C: chain ends. Non-standard residues stand in square brackets, D forms with d. Residues, ends and D or L forms follow the SMILES beside them. *: point of attachment. hPhe(3-Cl-4-CF3) = N[C@@H](CCc1ccc(C(F)(F)F)c(Cl)c1)C(=O)O; hPhe(3-F,4-CF3) = N[C@@H](CCc1ccc(C(F)(F)F)c(F)c1)C(=O)O; NMePhe(4-CF3) = CN[C@@H](Cc1ccc(C(F)(F)F)cc1)C(=O)O; NMeAla(4-thiazolyl) = CN[C@@H](Cc1cscn1)C(=O)O; NMePhe(3-CN) = CN[C@@H](Cc1cccc(C#N)c1)C(=O)O; NMeAbu(4,4,4-F3) = CN[C@@H](CC(F)(F)F)C(=O)O; NMePhe(4-Me) = CN[C@@H](Cc1ccc(C)cc1)C(=O)O; NMeGly(cPent) = CN[C@H](C(=O)O)C1CCCC1; NMeCha = CN[C@@H](CC1CCCCC1)C(=O)O; NMeChg = CN[C@H](C(=O)O)C1CCCCC1; NMeI = CC[C@H](C)[C@H](NC)C(=O)O; N(CH2CH2)2CF2 = FC1(F)CCN(*)CC1; Cha = N[C@@H](CC1CCCCC1)C(=O)O; NMeD = CN[C@@H](CC(=O)O)C(=O)O; NMeL = CN[C@@H](CC(C)C)C(=O)O; NMeV = CN[C@H](C(=O)O)C(C)C; d(β3hA) = C[C@@H](N)CC(=O)O; NMeS = CN[C@@H](CO)C(=O)O; Morpholide = C1CN(*)CCO1; NMeA = CN[C@@H](C)C(=O)O; NMeAib = CNC(C)(C)C(=O)O; Piperidide = C1CCN(*)CC1; Ac5c = NC1(C(=O)O)CCCC1; Aze = O=C(O)[C@@H]1CCN1; Nleu = CC(C)CNCC(=O)O; βAla = NCCC(=O)O; Sar = CNCC(=O)O; Propyl = CCC*

Target: T1, Kras and SOS1 (biotin-tagged human Kras loaded with GDP, His-tagged human SOS1) (Homo sapiens, UniProt P01116, G12D)
T1 construct: made in house; host or cells: E. coli (stated for Kras only)
Assay: Protein-protein interaction inhibition between Kras and SOS1 (KrasGl2D-SOS PPI) using AlphaScreen
Type: binding
Settings: AlphaScreen; biotin-tagged human Kras loaded with GDP, His-tagged human SOS1; read-out: KRAS G12D-SOS PPI IC50
Procedure, shortened: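 Energy transfer from nickel-chelate donor beads bound to His-SOS1 to streptavidin acceptor beads bound to biotin-Kras, expressed in E. coli and loaded with GDP after purification, was monitored. Donors were excited at 680 nm; singlet oxygen reaching acceptors gave emission read at 520-620 nm.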

T1 sequence (P01116 1-188 isoform P01116-2 G12D): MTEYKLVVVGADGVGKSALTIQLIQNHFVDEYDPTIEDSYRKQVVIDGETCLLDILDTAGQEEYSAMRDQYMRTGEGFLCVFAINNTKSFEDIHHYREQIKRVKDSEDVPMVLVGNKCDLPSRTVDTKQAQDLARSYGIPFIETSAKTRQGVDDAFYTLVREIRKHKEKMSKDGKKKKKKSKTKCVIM

First: CC[C@H](C)[C@@H]1NC(=O)[C@H](CC(C)C)N(C)C(=O)C[C@@H](C(=O)N2CCCCC2)N(C)C(=O)[C@H](CC(C)C)NC(=O)C(C)(C)N(C)C(=O)[C@H](CC(C)C)NC(=O)[C@H](CCc2ccc(C(F)(F)F)c(F)c2)NC(=O)CN(C)C(=O)[C@H](CC2CCCCC2)N(C)C(=O)CN(C)C(=O)CN(C)C1=O [Compound 969] ([NMeL]I[Sar][Sar][NMeCha][Sar][hPhe(3-F,4-CF3)]L[NMeAib]L[NMeD]-Piperidide; lactam N-11)
Second: CC[C@H](C)[C@@H]1NC(=O)[C@H](CC(C)C)N(C)C(=O)C[C@@H](C)NC(=O)[C@H](C(C)C)N(C)C(=O)C2(CCCC2)NC(=O)[C@@H]2CCCN2C(=O)[C@H](CCc2ccc(C(F)(F)F)c(Cl)c2)NC(=O)CN(C)C(=O)[C@H](CC2CCCCC2)N(C)C(=O)CN(C)C(=O)CN(CC(C)C)C1=O [Compound 970] (cyclo([Ac5c][NMeV][d(β3hA)][NMeL]I[Nleu][Sar][NMeCha][Sar][hPhe(3-Cl-4-CF3)]P))
The IC50 of the first is 120-fold lower: 2 nM for the first, 250 nM for the second.

Compared with `CCCOC[C@H]1C(=O)N(C)CC(=O)N[C@@H](CCc2ccc(C(F)(F)F)c(Cl)c2)C(=O)N2CCC[C@H]2C(=O)NC2(CCCC2)C(=O)N(C)[C@@H](C2CCCC2)C(=O)N(C)[C@H](C(=O)N2CCOCC2)CC(=O)N(C)[C@@H](CC(C)C)C(=O)N[C@@H]([C@@H](C)CC)C(=O)N(C)[C@@H](C)C(=O)N2CC[C@H]2C(=O)N1C` [Compound 974] ([NMeL]I[NMeA][Aze][NMeS](Propyl)[Sar][hPhe(3-Cl-4-CF3)]P[Ac5c][NMeGly(cPent)][NMeD]-Morpholide; lactam N-11), `CC[C@H](C)[C@@H]1NC(=O)[C@H](CC(C)C)N(C)C(=O)C[C@@H](C(=O)N2CCCCC2)N(C)C(=O)[C@H](C2CCCC2)N(C)C(=O)C2(CCCC2)NC(=O)[C@H](CC(=O)N2CCC(F)(F)CC2)N(C)C(=O)[C@H](CCc2ccc(C(F)(F)F)c(Cl)c2)NC(=O)CN(C)C(=O)[C@H](CC2CCCCC2)N(C)C(=O)[C@@H]2CCN2C(=O)[C@H](C)N(C)C1=O` [Compound 984] ([NMeL]I[NMeA][Aze][NMeCha][Sar][hPhe(3-Cl-4-CF3)][NMeD](N(CH2CH2)2CF2)[Ac5c][NMeGly(cPent)][NMeD]-Piperidide; lactam N-11) is 27-fold higher in IC50: 0.91 nM for the first, 25 nM for the second.

First: CC[C@H](C)[C@@H]1NC(=O)[C@H](CC(C)C)N(C)C(=O)C[C@@H](C)NC(=O)[C@H](C(C)C)N(C)C(=O)C2(CCCC2)NC(=O)[C@@H]2CCCN2C(=O)[C@H](CCc2ccc(C(F)(F)F)c(Cl)c2)NC(=O)CN(C)C(=O)[C@H](Cc2cccc(C#N)c2)N(C)C(=O)CN(C)C(=O)CN(C)C1=O [Compound 975] (cyclo([Ac5c][NMeV][d(β3hA)][NMeL]I[Sar][Sar][NMePhe(3-CN)][Sar][hPhe(3-Cl-4-CF3)]P))
Second: CC[C@H](C)[C@@H]1NC(=O)[C@H](CC(C)C)N(C)C(=O)CCNC(=O)[C@H](C(C)C)N(C)C(=O)C2(CCCC2)NC(=O)[C@@H]2CCCN2C(=O)[C@H](CCc2ccc(C(F)(F)F)c(Cl)c2)NC(=O)CN(C)C(=O)[C@H](CC2CCCCC2)N(C)C(=O)CN(C)C(=O)CN(C)C1=O [Compound 979] (cyclo([Ac5c][NMeV][βAla][NMeL]I[Sar][Sar][NMeCha][Sar][hPhe(3-Cl-4-CF3)]P))
The IC50 of the first is 1.7-fold lower: 22 nM for the first, 37 nM for the second. The first is the more potent here.

Compared with `CC[C@H](C)[C@@H]1NC(=O)[C@H](CC(F)(F)F)N(C)C(=O)C[C@@H](C(=O)N2CCOCC2)N(C)C(=O)[C@H](C2CCCCC2)N(C)C(=O)C2(CCCC2)NC(=O)[C@@H]2CCCN2C(=O)[C@H](CCc2ccc(C(F)(F)F)c(Cl)c2)NC(=O)CN(C)C(=O)[C@H](Cc2ccc(C(F)(F)F)cc2)N(C)C(=O)CN(C)C(=O)CN(C)C1=O` [Compound 981] ([NMeAbu(4,4,4-F3)]I[Sar][Sar][NMePhe(4-CF3)][Sar][hPhe(3-Cl-4-CF3)]P[Ac5c][NMeChg][NMeD]-Morpholide; lactam N-11), `CC(C)C[C@H]1C(=O)N[C@@H](CC2CCCCC2)C(=O)N(C)CC(=O)N(C)CC(=O)N(C)[C@@H](CC2CCCCC2)C(=O)N(C)CC(=O)N[C@@H](CCc2ccc(C(F)(F)F)c(Cl)c2)C(=O)N2CCC[C@H]2C(=O)NC2(CCCC2)C(=O)N(C)[C@@H](C(C)C)C(=O)N(C)[C@H](C(=O)N2CCCCC2)CC(=O)N1C` [Compound 986] ([NMeL][Cha][Sar][Sar][NMeCha][Sar][hPhe(3-Cl-4-CF3)]P[Ac5c][NMeV][NMeD]-Piperidide; lactam N-11) is 68-fold higher in IC50: 0.37 nM for the first, 25 nM for the second. The first is the more potent here.

Compound `CC[C@H](C)[C@@H]1NC(=O)[C@H](CC(C)C)N(C)C(=O)C[C@@H](C(=O)N(C)C)N(C)C(=O)[C@H]([C@@H](C)CC)N(C)C(=O)[C@H](C(C)C)NC(=O)[C@H](Cc2cscn2)N(C)C(=O)[C@H](CCc2ccc(C(F)(F)F)c(Cl)c2)NC(=O)CN(C)C(=O)[C@H](Cc2ccc(C)cc2)N(C)C(=O)[C@@H]2CCN2C(=O)[C@H](C)N(C)C1=O` [Compound 982] ([NMeL]I[NMeA][Aze][NMePhe(4-Me)][Sar][hPhe(3-Cl-4-CF3)][NMeAla(4-thiazolyl)]V[NMeI][NMeD]-NMe2; lactam N-11) has an IC50 of 48 nM.
